{
  "source": "patent US20230248772A1",
  "about": "“PRODUCTS AND METHODS USING A PLATELET-DERIVED HEMOSTATIC AGENT FOR CONTROLLING BLEEDING AND IMPROVING HEALING” (Cellphire, Inc., priority 2015, published 2023)",
  "key": {"thrombin": {"system": "thrombin", "assay": "Thrombin generation in plasma", "type": "biochemical, human", "conditions": "PPP from patients taking baby aspirin daily; normal range about 66-166 nM; FIG. 18", "procedure": "Reagent Preparation. For thrombin generation, the following materials were used from manufacturers, as follows: FluCa Kit (Diagnostica Stago, Cat. No. 86197), Thrombin calibrator (Diagnostica Stago, Cat. No. 86197), PRP Reagent (Diagnostica Stago, Cat. No. 86196), OCTOPLAS®, a solvent detergent treated human pooled plasma (Octapharma, Cat. No. 8-68209-952-04). All frozen reagents were thawed in a 37° C. water bath before use. All reagents were rehydrated with sterile water using the volume printed on the reagent labels. Approximately 2 min after rehydration, the reagents were mixed by inverting vials 5 times, so no chunks or powder left; vortexing was not used. […]\nSample Analysis - Plate preparation and testing. For experiments containing thrombosomes, a thrombosomes dilution series was generated (dilutions of 194.4 K, 64.8 K, 21.6 K, and 7.2 K per µL were typically used; cell counts are determined by flow cytometry) for each the experimental thrombosomes and the reference thrombosomes. […] The plate was then incubated in the Fluoroskan Ascent 96 well fluorescent plate reader (Thrombinoscope) (ThermoFisher Scientific) for 10 minutes. […] The plate fluorescence was monitored for 75 minutes at an interval of 20 seconds and a temperature of 40-41° C.\nThe effect of aspirin treatment (concentration) on thrombin generation was measured. […]"}, "NOD/SCID mice": {"system": "NOD/SCID mice", "assay": "Tail-snip bleed model in clopidogrel-treated mice", "type": "in vivo, mouse", "conditions": "~3 times the clinical dose of clopidogrel for 5 days; untreated 9 minutes", "procedure": "The mouse was treated with clopidogrel for 5 days. The mouse was anesthetized, the tail end was snipped off followed by thrombosomes being immediately administered. The time from tail snip to tail stop bleeding was recorded by visual inspection.\nNOD/SCID mice were treated with ~ 3 times the clinical dose of clopidogrel for 5 days then assessed in the tail-snip bleed model. The bleed time (min) was extended to 17.8 minutes with clopidogrel treatment verses untreated at 9 minutes (data not shown)."}, "[1]": {"conditions": "cited from earlier work"}, "whole blood": {"system": "whole blood", "assay": "T-TAS AR chip occlusion of whole blood under shear", "type": "cell-based", "source_text": "(§1) Evaluation by T-TAS® using an AR chip. AR chips are characterized by a single channel containing collagen and tissue factor; they can be used to analyze clotting and platelet function."}, "platelet rich plasma": {"system": "platelet rich plasma", "assay": "T-TAS flow system occlusion of platelet rich plasma (collagen and tissue factor coated channel)", "type": "cell-based", "conditions": "untreated 18.43", "source_text": "as §1"}, "platelets": {"system": "platelets", "assay": "Transmission light aggregometry, collagen-induced platelet aggregation in PRP", "type": "cell-based", "conditions": "collagen 10 µg/mL, all concentrations tested, FIG. 1", "source_text": "Plasma samples with platelet or thrombosomes or combination of both are loaded into cuvettes and placed into the aggregometry chambers. The chambers warm the sample and provide constant stirring. The initiation of aggregation can be done by multiple types of […] agents not limited to thrombin, ADP, collagen and any agent known to stimulate platelet aggregation. The samples can also have been taken as ex-vivo, or in-vitro supplemented with inhibitors. The instrument begins the assay by first recording the light transmission previous to stimulation for 2 minutes. The stimulant of interest is then introduced by the technician and the change in light transmission is recorded over time. The increase in light transmission corresponds to increase in platelet aggregation.\nThe aggregation of platelets (in platelet rich plasma) was evaluated using transmission light aggregometry. […] (FIG. 1)."}},
  "note": "Positions of bridges follow the written chain, without caps; N, C: chain ends. Non-standard residues stand in square brackets, D forms with d. Residues, ends and D or L forms follow the SMILES beside them. hArg = N=C(N)NCCCC[C@H](N)C(=O)O; Mpa = O=C(O)CCS",
  "data": [
    {"smiles": "CC(=O)Oc1ccccc1C(=O)O", "note": "[aspirin]", "values": [
      {"measurement": "peak thrombin of aspirin plasma in absence of thrombosomes", "setting": "thrombin", "value": "about 45 nM"}
    ]},
    {"smiles": "COC(=O)[C@H](c1ccccc1Cl)N1CCc2sccc2C1", "note": "[clopidogrel]", "values": [
      {"measurement": "bleed time", "setting": "NOD/SCID mice", "value": 17.8, "unit": "min"}
    ]},
    {"smiles": "N=C(N)NCCCC[C@@H]1NC(=O)CCSSC[C@@H](C(N)=O)NC(=O)[C@@H]2CCCN2C(=O)[C@H](Cc2c[nH]c3ccccc23)NC(=O)[C@H](CC(=O)O)NC(=O)CNC1=O", "note": "[eptifibatide] ([Mpa][hArg]GDWPC-NH2; disulfide 1-7)", "values": [
      {"measurement": "blood concentration", "setting": "[1]; IV 180 µg/kg bolus followed by 2 µg/kg/min continuous infusion, typical", "value": "1000 to 2000", "unit": "nM"},
      {"measurement": "time for bleeding time to return to normal after drug stoppage", "setting": "[1]; generally", "value": "≤ 1", "unit": "h"},
      {"measurement": "occlusion time of whole blood on T-TAS AR Chip", "setting": "whole blood; 6 µM eptifibatide, untreated whole blood occluded at 8 minutes, FIG. 2", "value": 16, "unit": "min"},
      {"measurement": "effect on occlusion time of whole blood on T-TAS AR Chip", "setting": "whole blood; eptifibatide at various concentrations", "value": "dose-dependent manner"},
      {"measurement": "occlusion time of platelet rich plasma", "setting": "platelet rich plasma; 9 µM eptifibatide, FIGS. 10A, 10B", "value": "over 30 minutes"},
      {"measurement": "collagen-induced platelet aggregation", "setting": "platelets", "value": "completely inhibited"}
    ]},
    {"smiles": "CCCCS(=O)(=O)N[C@@H](Cc1ccc(OCCCCC2CCNCC2)cc1)C(=O)O", "note": "[tirofiban]", "values": [
      {"measurement": "occlusion time of platelet rich plasma", "setting": "platelet rich plasma; 100 ng/mL tirofiban, FIGS. 9A, 9B", "value": "no occlusion"}
    ]}
  ]
}
